Source: PubChem BioAssay AID489022 (Sanford-Burnham Center for Chemical Genomics, 2010)
Values joined by “and” are separate entries in the source; they are usually repeats but may differ in a detail not shown here. Identical values can stand only once. Active and inactive are the calls of the source. No rule for the calls is given here.

Tested on: HEK-293T NF-kB luciferase reporter, luminescence counterscreen
Assay: inhibitors of NF-kB luciferase reporter, HEK-293T, dose response, counter-screen for BCR NF-kB inhibitor project, luminescence, B-cell screen hits (AID 489022)

Row | SMILES | IC50
1 | Cn1c(=O)cc(SCC(=O)N2CCCC2)c2cc(Cl)ccc21 | > 80 µM (inactive)
2 | CC(=O)C1=NN(c2ccccc2)C(c2cccs2)N1c1ccc(N(C)C)cc1 (stereo not given) | 5.42 µM
3 | Cc1ccc(-c2nn3c(C)nnc3c3ccccc23)cc1S(=O)(=O)NC(C)(C)CO | 27.6 µM (inactive)
4 | CCc1ccc(/C=C2/SC(=S)N(CCC(=O)Nc3cccnc3)C2=O)cc1 | > 80 µM (inactive)
5 | Cn1cnc([N+](=O)[O-])c1Sc1ccc([N+](=O)[O-])cc1 | > 80 µM (inactive)
6 | COc1cc(/C=N/Nc2nc(Nc3ccccc3)nc(N3CCOCC3)n2)ccc1OC(=O)c1ccco1 | > 80 µM (inactive)
7 | COc1ccc(-n2ncc3c(N4CCC(C(N)=O)CC4)ncnc32)cc1 | > 80 µM (inactive)
8 | CCC(C)(C)c1ccc(OCCCC[n+]2ccccc2)c(C(C)(C)CC)c1 | 8.65 µM
9 | Cc1ccc(C)c(OCc2ccc(C(=O)NN)o2)c1 | > 80 µM (inactive)
10 | COc1ccc(-c2nn(C)c(=O)c3ccccc23)cc1NS(C)(=O)=O | 43.9 µM (inactive)
11 | Cc1ccoc1C(=O)Nc1ccc(CC(=O)O)cc1 | 14.2 µM
12 | COc1ccc(C(=O)Nc2nnc(SCC(=O)Nc3ccc(NC(C)=O)cc3)s2)c(OC)c1 | > 80 µM (inactive)
13 | Fc1ccc(C2=Nn3c(nnc3-c3n[nH]c4c3CCC4)SC2)cc1 | 16.7 µM
14 | CCn1c(=O)cc(SCC(=O)N2CCC(C)CC2)c2ccccc21 | 70.9 µM (inactive)
15 | CSC1CCCCC1(O)CSc1nc2c(cc1C#N)CCCC2 (stereo not given) | > 80 µM (inactive)
16 | COc1cccc(Cn2nnc(C(=O)Nc3cc(Cl)ccc3OC)c2N)c1 | > 80 µM (inactive)
17 | CCc1ccc2nc(Nc3nc(COC)cc(=O)[nH]3)nc(C)c2c1 | 46.4 µM (inactive)
18 | CCN1C(=O)c2cccc3c(S(=O)(=O)Nc4ccccn4)ccc1c23 | 9.44 µM
19 | CC(C)(C)c1ccc(-c2cc(N)n[nH]2)cc1 | > 80 µM (inactive)
20 | CCOc1ccc(/C=C2\SC(=S)N(CCCC(=O)NCCCN3CCOCC3)C2=O)cc1 | > 80 µM (inactive)
21 | Cc1ccc(-n2c(-c3ccccc3)c[n+]3c2CCc2ccccc2-3)c(C)c1 | 2.15 µM
22 | Cc1ccc(S(=O)(=O)CC2CSc3nc4ccccc4n32)cc1 (stereo not given) | 0.41 µM
23 | CC1CCN(CCCNC(=O)COc2cc(=O)n(C)c3ccccc23)CC1 | > 80 µM (inactive)
24 | N#CC1=C(N)Oc2cc(Nc3ccccc3)ccc2C1c1ccncc1 (stereo not given) | 6.15 µM

Row | SMILES | IC50
25 | CC(C)(C)c1ccc(-n2ncc3c2CCCC3NC(=O)C2(C(N)=O)CC2)cc1 (stereo not given) | 0.34 µM
26 | COc1cc(Br)c(C(=O)c2nccc3cc(OC)c(OC)cc23)cc1OC | 27.5 µM (inactive)
27 | COc1ccccc1/C=C1\SC(=S)N(CCC(=O)Nc2cccc(O)c2)C1=O | > 80 µM (inactive)
28 | NNC(=O)COc1ccc(-c2nccc(-c3ccc(F)cc3)n2)cc1 | 42.3 µM (inactive)
29 | O=C1CCC2S/C(=C/Nc3ccc(C(F)(F)F)cc3)C(=O)N12 (stereo not given) | 3.77 µM
30 | Cc1nc2cc(-c3cccc(F)c3)nn2c(C)c1CCC(=O)NC(C)CCc1ccco1 (stereo not given) | 11.4 µM
31 | CCC(=O)N(C1=C(NC)C(=O)c2ccccc2C1=O)C(C)C | > 80 µM (inactive)
32 | CCN(CC(=O)Nc1c(F)cccc1F)C(=O)c1cc(S(=O)(=O)N(C)C)ccc1N1CCCC1 | > 80 µM (inactive)
33 | CC(C)(C)c1ccc(-c2noc(CCC(N)=O)n2)cc1 | 0.27 µM
34 | Cc1cnc(NC(=O)Nc2ccc(Cl)cc2)s1 | > 80 µM (inactive)
35 | Cc1nc(Nc2c(Cl)cccc2Cl)sc1C(=O)Nc1ccccc1 | 33 µM (inactive)
36 | C[C@H]1CCC/C=C/[C@@H]2C[C@H](O)C[C@H]2[C@H](O)/C=C/C(=O)O1 | 0.42 µM and 0.52 µM
37 | COc1ccc(-n2nnnc2S(=O)(=O)CC(=O)N2CCCCC2)cc1 | 16.9 µM
38 | COc1ccc(OC)c(S(=O)(=O)Nc2ccc(-c3ccc4nnc(C)n4n3)cc2)c1 | 32.2 µM (inactive)
39 | CCCC(=O)Nc1ccc(Sc2ccc([N+](=O)[O-])cc2)cc1 | 8.35 µM
40 | CCCNC(=O)CSCc1nc(-c2ccc(SC)cc2)oc1C | 38.5 µM (inactive)
41 | COc1ccc(-n2c(-c3ccc(Br)cc3)c[n+]3c2CCc2ccccc2-3)cc1 | 3.96 µM
42 | O=C(Cc1cccc2ccccc12)Nc1ccc(-c2cc3ccccc3oc2=O)cc1 | > 80 µM (inactive)
43 | CCOC(=O)c1nn(-c2ccccc2)c(C#N)c1NC(=O)c1nn(CC)cc1Br | > 80 µM (inactive)
44 | CN(C)S(=O)(=O)c1ccc(NC(=O)N2CCN(c3ccccc3)CC2)cc1 | > 80 µM (inactive)
45 | C/C(=N\Nc1nc(Nc2ccccc2)nc(N2CCOCC2)n1)c1cccs1 | > 80 µM (inactive)
46 | CC1=CC(C)(C)Nc2ccc(OC(=O)CN3C(=O)c4ccccc4C3=O)cc21 | 9.25 µM
47 | CCn1c(=O)cc(OCC(=O)N(C)C2CCCCC2)c2ccccc21 | > 80 µM (inactive)
48 | COc1ccc(C(C(=O)NC2CCCCC2)N(C(=O)CCl)c2ccc(Cl)cc2)cc1 (stereo not given) | 25.1 µM (inactive)

Row | SMILES | IC50
49 | COc1ccc(C=C(C(C)=O)C(C)=O)cc1OC | > 80 µM (inactive)
50 | COc1ccc(-c2ccc(C)cc2)cc1[C@H]1[C@H]2C=CC[C@@H](C)[C@@H]2C(=O)N1Cc1ccccc1 | 48.4 µM (inactive)
51 | N=c1ccn2c(n1)OC1C(O)C(CO)OC12 (stereo not given) | > 80 µM (inactive)
52 | CCCS(=O)(=O)Nc1cccc(-c2ccc3nnc(C)n3n2)c1 | > 80 µM (inactive)
53 | COC(=O)[C@@]12OC[C@]34[C@H]([C@@H](O)[C@@H]1O)[C@@]1(C)C(=O)C(O[C@@H]5OC(CO)[C@@H](O)[C@@H](O)[C@@H]5O)=C[C@@H](C)[C@@H]1C[C@H]3OC(=O)[C@H](OC(=O)/C=C(\C)C(C)(C)OC(C)=O)[C@@H]24 (stereo not given in full) | 3.2 µM
54 | CCOc1ccc(-c2nnc(SCC(=O)NC3CC3)o2)cc1 | > 80 µM (inactive)
55 | Cc1ccc(NC(=O)C2CCC(CNc3c(N4CCC(C)CC4)c(=O)c3=O)CC2)cc1F (stereo not given) | > 80 µM (inactive)
56 | Cc1nn(C(C)(C)C)c(OC(=O)c2ccc(Br)o2)c1Sc1ccccc1 | 53.8 µM (inactive)
57 | CCOc1ccc(-c2cc(CCCC(=O)NCc3ccc(C)cc3)no2)cc1 | 70.9 µM (inactive)
58 | CNC(=O)CCc1nc(-c2ccc(C(C)(C)C)cc2)no1 | 56.4 µM (inactive)
59 | Cc1cc(C)cc(NC(=O)Nc2ccc(NC(=O)c3ccccc3O)cc2)c1 | > 80 µM (inactive)
60 | CN1CCN(C(=O)c2ccccc2N(Cc2ccccc2)S(=O)(=O)c2ccccc2)CC1 | 45.4 µM (inactive)
61 | Oc1[nH]c2ccccc2c1N=Nc1nc(Nc2ccccc2)nc(N2CCOCC2)n1 | 35.5 µM (inactive)
62 | Cn1c(=O)n(C)c2cc(NS(=O)(=O)c3ccccc3)ccc21 | 59.3 µM (inactive)
63 | COC(=O)c1[nH]c2ccc(C)cc2c1NC(=O)Nc1ccccc1OC | > 80 µM (inactive)
64 | Cc1cccn2c(=O)c3cc(C(=O)NC4CCCCC4)c(=N)n(CCN4CCOCC4)c3nc12 | > 80 µM (inactive)
65 | O=C(NNC(=O)c1ccccc1O)c1ccc(Cl)c(S(=O)(=O)N2CCc3ccccc32)c1 | 0.47 µM
66 | Cc1noc(C)c1CSc1nc2[nH]ncc2c(=O)n1-c1ccccc1 | 7.74 µM
67 | CCc1ccc(/C=C2\SC(=S)N(CCCC(=O)Nc3ccccn3)C2=O)cc1 | > 80 µM (inactive)
68 | O=C1CCCc2c1[nH]c1ccc(CN3CCCCC3)cc21 | > 80 µM (inactive)
69 | O=C(Oc1cccc(/C=N/Nc2nc(Nc3ccccc3)nc(N3CCOCC3)n2)c1)c1ccco1 | > 80 µM (inactive)
70 | NC(=S)N=Nc1c(O)n(Cc2ccccc2)c2ccccc12 | > 80 µM (inactive)
